Reference: BindingDB's records for doi:10.1016/j.bioorg.2014.11.005 (Charles University In Prague, 2015)

Experiments:
Acetylcholinesterase = Acetylcholinesterase (Electrophorus electricus, UniProt O42275); experiment: Ellman's Method
[1] = biological target: Carboxylic ester hydrolase (Equus caballus, UniProt Q9N1N9); experiment: Ellman's Method
Carboxylic ester hydrolase, sequence (Q9N1N9 whole entry): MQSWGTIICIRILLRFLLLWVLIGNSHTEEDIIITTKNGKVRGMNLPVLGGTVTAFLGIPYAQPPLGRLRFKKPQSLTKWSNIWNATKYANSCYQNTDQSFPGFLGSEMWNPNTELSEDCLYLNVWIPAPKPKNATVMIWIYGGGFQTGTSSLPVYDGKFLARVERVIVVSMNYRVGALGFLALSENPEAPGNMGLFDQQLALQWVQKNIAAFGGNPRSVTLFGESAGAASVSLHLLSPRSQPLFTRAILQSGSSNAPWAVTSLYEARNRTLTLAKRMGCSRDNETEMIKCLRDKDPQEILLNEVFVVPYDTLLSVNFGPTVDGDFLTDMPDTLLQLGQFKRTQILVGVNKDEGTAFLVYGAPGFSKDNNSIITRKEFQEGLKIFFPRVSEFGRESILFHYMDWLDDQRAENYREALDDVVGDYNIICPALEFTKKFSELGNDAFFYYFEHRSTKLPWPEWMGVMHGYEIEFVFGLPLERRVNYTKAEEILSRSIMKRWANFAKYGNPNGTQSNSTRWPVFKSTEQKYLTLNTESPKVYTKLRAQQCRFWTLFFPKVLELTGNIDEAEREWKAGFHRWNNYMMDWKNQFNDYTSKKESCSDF

Acetylcholinesterase, sequence (O42275 whole entry): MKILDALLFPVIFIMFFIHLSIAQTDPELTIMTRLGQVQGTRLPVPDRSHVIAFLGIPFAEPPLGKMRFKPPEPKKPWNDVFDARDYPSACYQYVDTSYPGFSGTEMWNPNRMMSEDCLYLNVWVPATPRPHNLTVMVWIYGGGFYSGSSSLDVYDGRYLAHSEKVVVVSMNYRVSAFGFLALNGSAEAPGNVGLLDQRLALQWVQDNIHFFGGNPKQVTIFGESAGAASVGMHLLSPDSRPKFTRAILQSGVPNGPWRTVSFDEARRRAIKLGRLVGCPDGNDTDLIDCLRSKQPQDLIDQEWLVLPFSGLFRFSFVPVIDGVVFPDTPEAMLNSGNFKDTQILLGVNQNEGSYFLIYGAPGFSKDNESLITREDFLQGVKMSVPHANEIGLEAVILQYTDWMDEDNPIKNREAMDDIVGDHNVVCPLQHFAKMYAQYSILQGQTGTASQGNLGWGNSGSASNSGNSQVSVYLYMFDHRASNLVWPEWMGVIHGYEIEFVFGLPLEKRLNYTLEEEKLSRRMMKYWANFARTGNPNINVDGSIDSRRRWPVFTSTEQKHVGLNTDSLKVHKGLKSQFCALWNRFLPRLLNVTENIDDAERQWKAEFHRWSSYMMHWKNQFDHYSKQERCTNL

SMILES | IC50 (Acetylcholinesterase) | IC50 [1]
CCOP(=O)(OCC)Oc1ccc(Br)cc1C(=O)Nc1cccc(Br)c1 [4‐bromo‐2‐[(3‐bromophenyl)carbamoyl]phenyl diethyl  phosphate (7)] | 70.3 µM | 18 µM
CCOP(=O)(OCC)Oc1ccc(Cl)cc1C(=O)Nc1ccc(C(F)(F)F)cc1 [4‐chloro‐2‐{[4‐ (trifluoromethyl)phenyl]carbamoyl}phenyl diethyl  phosphate (18)] | 41.6 µM | 20.9 µM
CCOP(=O)(OCC)Oc1ccc(Cl)cc1C(=O)Nc1ccc(F)cc1 [4‐chloro‐2‐[(4‐fluorophenyl)carbamoyl]phenyl  diethyl phosphate (13)] | 48.5 µM | 20.5 µM
CCOP(=O)(OCC)Oc1cc(Cl)ccc1C(=O)Nc1ccc(F)cc1 [5-chloro-2-[(4-fluorophenyl)carbamoyl]phenyl diethyl phosphate (22)] | 80.8 µM | 4.43 µM
CCOP(=O)(OCC)Oc1cc(Cl)ccc1C(=O)Nc1cccc(Br)c1 [2-[(3-bromophenyl)carbamoyl]-5-chlorophenyl diethyl phosphate (20)] | 35.4 µM | 1.77 µM
CCOP(=O)(OCC)Oc1cc(Cl)ccc1C(=O)Nc1ccc(Br)cc1 [2-[(4-bromophenyl)carbamoyl]-5-chlorophenyl diethyl phosphate (23)] | 55.1 µM | 8.76 µM
CCOP(=O)(OCC)Oc1cc(Cl)ccc1C(=O)Nc1cccc(F)c1 [5-chloro-2-[(3-fluorophenyl)carbamoyl]phenyl diethyl phosphate (21)] | 60.2 µM | 11.5 µM
CCOP(=O)(OCC)Oc1cc(Cl)ccc1C(=O)Nc1cccc(C(F)(F)F)c1 [5-chloro-2-{[3-(trifluoromethyl)phenyl]carbamoyl}phenyl diethyl phosphate (26)] | 71.9 µM | 3.53 µM
CCOP(=O)(OCC)Oc1ccc(Br)cc1C(=O)Nc1ccc(C(F)(F)F)cc1 [4‐bromo‐2‐{[4‐ (trifluoromethyl)phenyl]carbamoyl}phenyl diethyl  phosphate (6)] | 56.7 µM | 10.3 µM
CCOP(=O)(OCC)Oc1ccc(Cl)cc1C(=O)Nc1cccc(F)c1 [4‐chloro‐2‐[(3‐fluorophenyl)carbamoyl]phenyl  diethyl phosphate (12)] | 61.1 µM | 31.6 µM
CCOP(=O)(OCC)Oc1ccc(Br)cc1C(=O)Nc1ccc(Cl)c(Cl)c1 [4‐bromo‐2‐[(3,4‐dichlorophenyl)carbamoyl]phenyl  diethyl phosphate (4)] | 55.2 µM | 49.6 µM
CCOP(=O)(OCC)Oc1cc(Cl)ccc1C(=O)Nc1ccc(Cl)cc1 [5-chloro-2-[(4-chlorophenyl)carbamoyl]phenyl diethyl phosphate (24)] | 60.9 µM | 5.01 µM
CCOP(=O)(OCC)Oc1ccc(Cl)cc1C(=O)Nc1ccc(Cl)c(Cl)c1 [4‐chloro‐2‐[(3,4‐dichlorophenyl)carbamoyl]phenyl  diethyl phosphate (15)] | 80.9 µM | 40.3 µM
CCOP(=O)(OCC)Oc1ccc(Br)cc1C(=O)Nc1cccc(Cl)c1 [4‐bromo‐2‐[(3‐chlorophenyl)carbamoyl]phenyl  diethyl phosphate (2)] | 79.9 µM | 24.4 µM
CCOP(=O)(OCC)Oc1ccc(Br)cc1C(=O)Nc1cccc(F)c1 [4‐bromo‐2‐[(3‐fluorophenyl)carbamoyl]phenyl  diethyl phosphate (1)] | 69.8 µM | 68.3 µM
CCOP(=O)(OCC)Oc1ccc(Br)cc1C(=O)Nc1ccc(F)cc1 [4‐bromo‐2‐[(4‐fluorophenyl)carbamoyl]phenyl  diethyl phosphate (9)] | 53.7 µM | 22.7 µM
CCOP(=O)(OCC)Oc1ccc(Br)cc1C(=O)Nc1cccc(C(F)(F)F)c1 [4‐bromo‐2‐{[3‐ (trifluoromethyl)phenyl]carbamoyl}phenyl diethyl  phosphate (5)] | 46.1 µM | 14.3 µM
CCOP(=O)(OCC)Oc1cc(Cl)ccc1C(=O)Nc1ccc(C(F)(F)F)cc1 [5-chloro-2-{[4-(trifluoromethyl)phenyl]carbamoyl}phenyl diethyl phosphate (27)] | 86.3 µM | 9.84 µM
CCOP(=O)(OCC)Oc1ccc(Cl)cc1C(=O)Nc1cccc(C(F)(F)F)c1 [4‐chloro‐2‐{[3‐ (trifluoromethyl)phenyl]carbamoyl}phenyl diethyl  phosphate (17)] | 51.5 µM | 24.8 µM
CCOP(=O)(OCC)Oc1cc(Cl)ccc1C(=O)Nc1cccc(Cl)c1 [5-chloro-2-[(3-chlorophenyl)carbamoyl]phenyl diethyl phosphate (19)] | 41.1 µM | 3.68 µM
CCOP(=O)(OCC)Oc1ccc(Cl)cc1C(=O)Nc1cccc(Br)c1 [2‐[(3‐bromophenyl)carbamoyl]‐4‐chlorophenyl  diethyl phosphate (16)] | 63.3 µM | 16.9 µM
CCOP(=O)(OCC)Oc1ccc(Cl)cc1C(=O)Nc1ccc(Cl)cc1 [4‐chloro‐2‐[(4‐chlorophenyl)carbamoyl]phenyl  diethyl phosphate (11)] | 60.9 µM | 42.1 µM
CCOP(=O)(OCC)Oc1ccc(Br)cc1C(=O)Nc1ccc(Cl)cc1 [4‐bromo‐2‐[(4‐chlorophenyl)carbamoyl]phenyl  diethyl phosphate (3)] | 45.5 µM | 19.9 µM
CCOP(=O)(OCC)Oc1ccc(Cl)cc1C(=O)Nc1ccc(Br)cc1 [2‐[(4‐bromophenyl)carbamoyl]‐4‐chlorophenyl  diethyl phosphate (14)] | 59.2 µM | 40.2 µM
CCOP(=O)(OCC)Oc1cc(Cl)ccc1C(=O)Nc1ccc(Cl)c(Cl)c1 [5-chloro-2-[(3,4-dichlorophenyl)carbamoyl]phenyl diethyl phosphate (25)] | 45.5 µM | 0.903 µM
CCOP(=O)(OCC)Oc1ccc(Cl)cc1C(=O)Nc1cccc(Cl)c1 [4‐chloro‐2‐[(3‐chlorophenyl)carbamoyl]phenyl  diethyl phosphate (10)] | 64.3 µM | 28.1 µM
CCOP(=O)(OCC)Oc1ccc(Br)cc1C(=O)Nc1ccc(Br)cc1 [4‐bromo‐2‐[(4‐bromophenyl)carbamoyl]phenyl diethyl  phosphate (8)] | 50.8 µM | 13 µM
